The target of one experiment is T1, Human HEX B (Homo sapiens, UniProt P07686).
T1 construct: Hex B protein (isolated from human placenta) was purchased from Sigma Co; purchased Sigma Co; host or cells: human placenta
Description: Michaelis-Menten/Lineweaver-Burk kinetic inhibition of Hex B with 4MU-NAG substrate. It is filed as biochemical. As for the experimental part: Hex B protein (isolated from human placenta) was purchased from Sigma Co.
Both O-GlcNAcase and Hex B were subjected to Michaelis-Menton kinetic analysis to determine the kinetics of their enzymatic activity in the presence of absence of Compounds 1-5 and Compound ix, using 4-methylumbelliferyl-N-acetyl-β-D-glucosaminide (4MU-NAG; purchased from Sigma Co.) as the substrate (a fluorogenic substrate). The reaction conditions for each enzyme are shown below:
Hex B: reaction mixture (0.1 nM Hex B (200 μL), 50 mM NaH2PO4, 100 mM NaCl, 0.1% BSA, 0.05-1.5 mM substrate, pH 6.5) was incubated at 30° C. for 25 minutes. The reaction was terminated by addition of a 3× quenching buffer (200 mM sodium glycine buffer, pH 10.8). The enzyme activity was determined as described above.
To determine the effects of Compounds 1-5 and Compound ix on the kinetics of both enzymes, the enzyme reactions described above were performed in the presence of each compound at different concentrations. In these reactions, the substrate concentrations were three to five fold of the concentration used for determining KM (absent compounds) and the ratio between the enzyme and the compound was 0.1-0.5 nM to 0.3 nM-200 uM. The data thus obtained were analyzed by the Lineweaver-Burk plot. The K1 values were determined by the double reciprocal plot (1/V vs. 1/[S]). More specifically, the Km values for each enzyme in the presence of one of the test compounds first determined and these values were further plotted in view of the concentrations of the compound. K1 was determined by calculating the negative value of the resulting x-intercept. The selectivity of each compound was calculated by the formula: K1 O-GlcNAcase/K1 Hex B.

The next experiment addresses T2, human Hex B (FLAG-HexB) (Homo sapiens, UniProt P07686).
T2 construct: FLAG (N); expressed in transfected cells
T2 sequence (P07686 122-556): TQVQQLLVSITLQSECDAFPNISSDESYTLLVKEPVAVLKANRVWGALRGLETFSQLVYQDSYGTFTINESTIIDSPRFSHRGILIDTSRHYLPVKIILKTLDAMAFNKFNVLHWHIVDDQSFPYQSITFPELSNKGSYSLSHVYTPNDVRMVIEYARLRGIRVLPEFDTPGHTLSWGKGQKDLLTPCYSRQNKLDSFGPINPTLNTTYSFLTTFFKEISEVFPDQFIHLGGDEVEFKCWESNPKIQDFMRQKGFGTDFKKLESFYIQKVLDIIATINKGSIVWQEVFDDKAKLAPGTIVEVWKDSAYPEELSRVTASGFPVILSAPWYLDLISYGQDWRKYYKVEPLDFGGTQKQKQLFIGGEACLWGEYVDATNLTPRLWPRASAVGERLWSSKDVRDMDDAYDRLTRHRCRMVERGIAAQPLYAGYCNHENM
Briefly: Immunoprecipitation / streptavidin pull-down and Western blot from 293T/FLAG-HexB cell lysate. The note with it: 200 nM, room temperature 10 min. It is filed as binding. The method, then: A DNA fragment encoding human Hex B was amplified by PCR and cloned into pCMV-Tag 2B vector (Stratagene) to produce FLAG-tagged HexB expression plasmid (pFLAG-HexB). This plasmid was introduced into 293T cells to establish a cell line stably expressing FLAG-HexB. Briefly, 293T cells were maintained in Dulbecco's modified Eagle's medium (DMEM) supplemented with 10% (by volumn) heat inactivated fetal bovine serum (FBS), 2 mM glutamine, 100 units/mL penicillin and 100 μg/mL streptomycin at 37° C. in a 5% CO2 atmosphere. These cells were transfected with expression plasmid pFLAG-HexB and plasmid pBabe-puro (carrying a puromycin resistance gene) at a molar ratio of 30-40:1. 8 hours later, the transfected cells were fed with fresh medium and incubated for 16 h. These cells were then cultured in puromycin-containing (2 μg/mL) medium for 2-3 weeks to screen for puromycin-resistant clones.
Binding of Compound 5 to FLAG-HexB were further confirmed by immuno-precipitation and Westernblot assays. The 293T/FLAG-HexB cells were lysed with a lysis buffer containing 1% NP-40, 10 mM Tris-HCl at pH 7.4, 150 mM NaCl, 2 mM EDTA, 1 mM phenylmethylsulfonyl fluoride, and a proteinase inhibitor cocktail (Sigma), and the cell lysate was then incubated at room temperature for 10 min in the presence or absence of Compound 5 (200 nM). […]

Experiment [1] deals with BV2 cells (mouse microglia cells). Description: GM2 ganglioside accumulation in BV2 microglia cells by Western blot. It is filed as cell-based. The note with it: different concentrations, 16 hr, Western blot with anti-Ganglioside asialo GM2 antibody. The method, then: BV2 cells (mouse microglia cells) were cultured in DMEM for 24 hr in 60-mm tissue culture dishes. The cells were washed once with PBS (pH 7.4), and 2 mL of fresh medium with or without biotin conjugated Compound 5 (at different concentrations) was added to each dish. After being incubated in a 5% CO2 incubator at 37° C. for 16 hr, the BV2 cells were harvested, re-suspended in a solution containing PBS and 2×SDS lysis buffer (250 mM Tris, pH 6.8/4% SDS/20% glycerol/0.002% bromophenol blue/10% 2-mercaptoethanol) at a ratio of 1:1 to produce whole cell lysates. The cell lysates were boiled and then subjected to SDS-PAGE (15%) using a mini-gel apparatus (Biorad, Germany). Substances contained in the gel were transferred to a nitrocellulose membrane (Millipore) at 1 mA/cm^2 using a semidry blot system (Biorad, Germany). The membrane was blocked with a Tris-buffered saline (TBST) (50 mM Tris-HCl, pH 7.5; 150 mM NaCl; 0.1% Tween-20) containing 5% skim-milk and then blotted with an anti-Ganglioside asialo GM2 antibody and an anti-GAPDH antibody.
(A western blot detects proteins with antibodies after separation by electrophoresis.)

T1 sequence (P07686 50-107 partner limits assumed, one chain of several): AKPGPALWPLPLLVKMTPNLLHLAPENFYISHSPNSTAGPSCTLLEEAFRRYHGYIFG

Broadly, the Ki is the dissociation constant of the complex between target and ligand, obtained from inhibition or displacement. Take `CC(=O)NC1CN(CCCCCCCNC(=O)CCCCC2SCC3NC(=O)NC32)C(CO)C(O)C1O` (stereo not shown) [Compound 5]: the Ki at Human HEX B (Table 1) and at Human HEX B (Table 2) was 26.7 ± 1.11 nM each time. In addition, the “association of FLAG-HexB with compound (streptavidin-agarose beads)” value at human Hex B (FLAG-HexB) is reported as “FLAG-HexB protein was attached to the streptavidin-agarose beads”. For the same compound, the “ganglioside GM2 accumulation” value in experiment [1] is given as “accumulated in Compound 5-treated BV2 cells in a dose-dependent manner”.

The values above are taken from patent publication US8466291B2, “1,5-dideoxy-1,5-imino-D-glucitol compounds” (Academia Sinica, priority 2008, dated 2013).
